Tested on: mRNA expressed from the genes (A) to (D) in rat liver
Test: Behavior of genes (mRNA expression level, oligo-DNA microarray) in rat liver after 28-day oral administration
Type: in vivo
Details: rat liver, oral once daily 28 days
Description: A test solution was prepared by dissolving each of the carcinogens and the non-carcinogens shown in Tables 2 to 6 in the corresponding solvent shown in Tables 2 to 6. Each of the thus prepared test solutions and the solvents used for the preparation was administered by oral gavage to rats in each group. As the rats, male rats (F344 SPF rats) at 5 weeks of age obtained from Charles River Laboratories Japan, Inc. were used. The animals were divided into groups, each containing four individuals. The volume of the solvent administered to the vehicle control group was set to the same volume as that of the test solution administered to the carcinogen administration group or the non-carcinogen administration group. The administration of the test solution or the solvent was performed once daily for 28 days. Apiece was excised from the liver of each of the rats after a lapse of 28 days from the initiation of the administration, and the total RNA was extracted and purified.
The expression level of mRNA was compared between each of the chemical substance administration groups and the corresponding vehicle control group, and genes that satisfy the requirements described in (A) to (D) were selected, respectively.
The case where the expression level of mRNA in the carcinogen administration group or the non-carcinogen administration group is 1.5 times or more or 1/1.5 or less of the expression level of the corresponding mRNA expressed in the control group was determined to be significant. In this connection, the determination as to whether or not the change is significant was performed by taking into consideration the direction of increase or decrease in the expression level. In the case where the direction of increase or decrease is different as compared with the case where another carcinogen was administered, the change was determined to be not significant.

[1] = (C), Unigene Rn.120914, defined direction +

SMILES: COC(N)=O [TS029, Methyl carbamate]
- Behavior of gene caused by administration of chemical substance, Gene No. 4846 ((A), Unigene Rn.144554, defined direction +): +
- Behavior of gene caused by administration of chemical substance, Gene No. 4218 ((A), Unigene Rn.167075, defined direction +, significant = 1.5 times or more or 1/1.5 or less of control): +
- Behavior of gene caused by administration of chemical substance, Gene No. 2026 ((A), Unigene Rn.167075, defined direction −): +
- Behavior of gene caused by administration of chemical substance, Gene No. 6182 ((A), Unigene Rn.5834, defined direction +): +
- Behavior of gene caused by administration of chemical substance, Gene No. 5600 ((A), Unigene Rn.9836, defined direction +): +
- Behavior of gene caused by administration of chemical substance, Gene No. 1494 ((B), Unigene Rn.1430, defined direction −): +
- Behavior of gene caused by administration of chemical substance, Gene No. 2045 ((B), Unigene Rn.19329, defined direction +): −
- Behavior of gene caused by administration of chemical substance, Gene No. 2203 ((B), Unigene Rn.21240, defined direction +): −
- Behavior of gene caused by administration of chemical substance, Gene No. 533 ((C), Unigene Rn.106184, defined direction +): +
- Behavior of gene caused by administration of chemical substance, Gene No. 725 ((C), Unigene Rn.108075, defined direction −): −
- Behavior of gene caused by administration of chemical substance, Gene No. 1163 ((C), Unigene Rn.11766, defined direction +): −
- Behavior of gene caused by administration of chemical substance, Gene No. 4973 ((C), Unigene Rn.118529, defined direction −): −
- Behavior of gene caused by administration of chemical substance, Gene No. 4095 ((C), Unigene Rn.119024, defined direction −): −
- Behavior of gene caused by administration of chemical substance, Gene No. 1334 [1]: −
- Behavior of gene caused by administration of chemical substance, Gene No. 6620 [1]: −
- Behavior of gene caused by administration of chemical substance, Gene No. 6303 ((C), Unigene Rn.123063, defined direction −): +
- Behavior of gene caused by administration of chemical substance, Gene No. 5878 ((C), Unigene Rn.143213, defined direction −): −
- Behavior of gene caused by administration of chemical substance, Gene No. 1131 ((C), Unigene Rn.144946, defined direction −): −
- Behavior of gene caused by administration of chemical substance, Gene No. 1562 ((C), Unigene Rn.14744, defined direction −): +
- Behavior of gene caused by administration of chemical substance, Gene No. 1741 ((C), Unigene Rn.1647, defined direction −): +
- Behavior of gene caused by administration of chemical substance, Gene No. 893 ((C), Unigene Rn.164817, defined direction +): −
- Behavior of gene caused by administration of chemical substance, Gene No. 6026 ((C), Unigene Rn.167685, defined direction −): −
- Behavior of gene caused by administration of chemical substance, Gene No. 154 ((C), Unigene Rn.185941, defined direction −): +
- Behavior of gene caused by administration of chemical substance, Gene No. 1993 ((C), Unigene Rn.18728, defined direction −): +
- Behavior of gene caused by administration of chemical substance, Gene No. 813 ((C), Unigene Rn.201760, defined direction +): −
- Behavior of gene caused by administration of chemical substance, Gene No. 2494 ((C), Unigene Rn.23969, defined direction +): −
- Behavior of gene caused by administration of chemical substance, Gene No. 2546 ((C), Unigene Rn.24561, defined direction −): −
- Behavior of gene caused by administration of chemical substance, Gene No. 3776 ((C), Unigene Rn.43232, defined direction −): +
- Behavior of gene caused by administration of chemical substance, Gene No. 3929 ((C), Unigene Rn.4620, defined direction +): −
- Behavior of gene caused by administration of chemical substance, Gene No. 1119 ((C), Unigene Rn.9757, defined direction +): −
- Behavior of gene caused by administration of chemical substance, Gene No. 6742 ((C), Unigene Rn.9779, defined direction +): −
- Behavior of gene caused by administration of chemical substance, Gene No. 5634 ((C), Unigene Rn.9862, defined direction −): −
- Behavior of gene caused by administration of chemical substance, Gene No. 5726 ((D), Unigene Rn.9939, defined direction −): −

Reference: patent publication US20110039721A1, “METHOD FOR PREDICTION ABOUT CARCINOGENICITY OF SUBSTANCE IN RODENT” (Chemicals Evaluation and Research Institute, priority 2007, published 2011)
